Results published in PMC9830638, “High-Contrast Detection of Somatostatin Receptor Subtype-2 for Fluorescence-Guided Surgery” (Molecular Pharmaceutics, 2022).

Tested on: orthotopically implanted BON–SSTR2 tumors
Assay: Simulated clinical workflow, PET/CT imaging in orthotopic BON–SSTR2 tumor model
Assay type: in vivo, mice
Settings: orthotopic BON–SSTR2, 7.4 MBq (0.5 nmol), 1 h after injection, n = 5
Procedure: Mice bearing orthotopically implanted BON–SSTR2 tumors (n = 5) were injected with 7.4 MBq (200 μCi; 0.5 nmol) of ^68Ga-DOTA-TOC and underwent PET/computed tomography (CT) imaging (Albira small animal PET/CT scanner, Bruker) 1 h after injection. […] After euthanasia, tumors were harvested under white light, and the wound bed was re-imaged with NIRF. After a more thorough visual inspection of the wound bed under white light, suspicious lesions were identified and harvested with the intact organ for ex vivo imaging along with other tissues of interest. Tumors, suspicious lesions, and relevant non-tumor tissues were processed for immunohistopathological and mesoscopic imaging.
For CFT two-dimensional (2D) and three-dimensional (3D) reconstruction, 2D images were obtained from individual slices, and an image stack was generated to produce 3D data sets. For PET/CT imaging, region-of-interest analysis was done with Integrated PMOD software (PMOD technologies) to standardize uptake values and determine TBRs.

Q: “1,4,7,10-tetraazacyclododecane-1,4,7,10-tetraacetic acid-Tyr^3-octreotide [68Ga-DOTA-TOC]” was tested. Which “mice with abnormal uptake in the abdomen (PET/CT)” value did it give?
A: Its value is 4 out of 5.
